Some test systems named below: EKVX; TK-10; HL-60; MDA-MB-231; CAKI-1; MCF7; OVCAR-8; KM12; SN12C; SW-620; A549; BT-549; UO-31; SNB-19; IGROV-1; SK-MEL-5; NCI-H226; T47D; SR.
What all share (experiment): NCI anticancer screen, dose series, 48 h

Molecules are shown by their SMILES.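 A five-concentration, 48-hour dose response in 96-well plates underlies each endpoint, interpolated linearly between surrounding concentrations. The concentration for 50% growth inhibition is given as GI50.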 Calls of active or inactive are those of the source. No stated cut-off is given here; in the data, active = GI50 up to about 1.1 µM and inactive = higher.

Regarding `CC1=NN(c2nc(N)nc(-c3sccc3N)n2)C(C)(C)C1`, the GI50 with EKVX was 82.6 µM (inactive); in the assay with TK-10 it was > 100 µM (inactive); with HL-60, 71.3 µM (inactive); with MDA-MB-231 it was 73.1 µM (inactive); in the assay on CAKI-1 it was > 100 µM (inactive); in the assay with MCF7, 78 µM (inactive). Further, the GI50 in the assay with OVCAR-8 is 62.5 µM (inactive); in the assay with KM12 it was 46.1 µM (inactive); in the assay with SN12C, > 100 µM (inactive); in the assay on SW-620, > 100 µM (inactive); in the assay on A549, 35.8 µM (inactive); in the assay with BT-549, 56.1 µM (inactive). Besides, the GI50 was > 100 µM (inactive) in the assay on UO-31; > 100 µM (inactive) with SNB-19; > 100 µM (inactive) with IGROV-1; 41.1 µM (inactive) with SK-MEL-5; 33.1 µM (inactive) with NCI-H226.
On to `COc1ccc(/C=C2\N=C3NC(=O)C(N4CCOCC4)=C(N)N3C2=O)cc1`, for which the GI50 with EKVX was 69.7 µM (inactive); with TK-10 it was 53.7 µM (inactive); with HL-60 it was 48.9 µM (inactive); in the assay on MDA-MB-231, > 100 µM (inactive); with CAKI-1, > 100 µM (inactive); in the assay on MCF7, > 100 µM (inactive). Further, the GI50 in the assay on OVCAR-8, in the assay on KM12, in the assay on T47D, in the assay with SN12C, with SW-620 and with A549 was > 100 µM (inactive) in each case. Further, the GI50 was > 100 µM (inactive) in the assay on UO-31; 96.8 µM (inactive) with SNB-19; 85.5 µM (inactive) in the assay with IGROV-1; > 100 µM (inactive) with SK-MEL-5; > 100 µM (inactive) in the assay with NCI-H226; 29.9 µM (inactive) in the assay with SR.
Consider `CC(=O)C1C(=O)C(=O)N(c2ccc(Br)cc2)C1=O` (stereo not drawn), for which the GI50 in the assay on EKVX, in the assay on TK-10, in the assay with HL-60, with MDA-MB-231, in the assay on CAKI-1 and in the assay with MCF7 was > 100 µM (inactive) each time. Moreover, the GI50 in the assay with OVCAR-8, with KM12, with SN12C, in the assay with SW-620, with A549 and in the assay on BT-549 was > 100 µM (inactive) each time. Besides, the GI50 in the assay with UO-31, in the assay on SNB-19, with IGROV-1, in the assay with SK-MEL-5 and in the assay on NCI-H226 was > 100 µM (inactive) throughout.
Turning to `COc1ccc(/C=C2\NC(=S)N(CN3CCOCC3)C2=O)cc1`, the GI50 with EKVX, with TK-10, with MDA-MB-231, with MCF7, with OVCAR-8 and in the assay on KM12 was > 100 µM (inactive) each time. The GI50 in the assay with SN12C, in the assay on SW-620, in the assay on A549, with UO-31, in the assay on SNB-19 and in the assay on IGROV-1 was > 100 µM (inactive) throughout. Also, the GI50 in the assay on SK-MEL-5, with NCI-H226 and in the assay on SR was > 100 µM (inactive) throughout.
As to `Cc1c2oc3c(C)cc(F)c(C(=O)NC4C(=O)NC(C(C)C)C(=O)N5CCCC5C(=O)N(C)CC(=O)N(C)C(C(C)C)C(=O)OC4C)c3nc-2c(C(=O)NC2C(=O)NC(C(C)C)C(=O)N3CCCC3C(=O)N(C)CC(=O)N(C)C(C(C)C)C(=O)OC2C)c(N)c1=O` (stereo not drawn), the GI50 in the assay on EKVX was 1.75 µM (inactive); in the assay on TK-10, 0.224 µM (active); in the assay on HL-60 it was 0.00131 µM (active); with MDA-MB-231, 0.647 µM (active); with CAKI-1, 2.45 µM (inactive); in the assay with MCF7, < 0.001 µM (active). In addition, the GI50 with OVCAR-8 was 0.221 µM (active); in the assay on KM12 it was 0.00475 µM (active); with T47D, 0.101 µM (active); with SN12C it was 0.0303 µM (active); in the assay with SW-620, 0.00114 µM (active); in the assay on A549, 0.0148 µM (active). The GI50 in the assay on UO-31 is 0.521 µM (active); in the assay with SNB-19, 0.00771 µM (active); in the assay on IGROV-1, 0.00618 µM (active); in the assay on SK-MEL-5 it was 0.0142 µM (active); in the assay on NCI-H226, 0.0234 µM (active); with SR, < 0.001 µM (active).
For the compound `CC(C)CC(NC(=O)C(CI)Cc1ccccc1)C(=O)Nc1ccccc1` (stereo not drawn), the GI50 with EKVX, in the assay on TK-10, in the assay on HL-60, in the assay with MDA-MB-231, with CAKI-1 and in the assay with MCF7 was > 100 µM (inactive) throughout. Besides, the GI50 in the assay with OVCAR-8 is > 100 µM (inactive); in the assay on KM12 it was > 100 µM (inactive); in the assay on SN12C it was > 100 µM (inactive); with SW-620 it was > 100 µM (inactive); in the assay on A549, > 100 µM (inactive); with BT-549, 7.76 µM (inactive). The GI50 was > 100 µM (inactive) in the assay on UO-31; > 100 µM (inactive) with SNB-19; > 100 µM (inactive) with IGROV-1; > 100 µM (inactive) in the assay with SK-MEL-5; 68.9 µM (inactive) in the assay on SR.
With `CCOC(=O)c1cn2c(n1)sc1cccc(C)c12`, the GI50 in the assay with EKVX is 52.6 µM (inactive); with TK-10 it was > 100 µM (inactive); in the assay with MDA-MB-231 it was > 100 µM (inactive); in the assay with CAKI-1, > 100 µM (inactive); with MCF7, > 100 µM (inactive); in the assay with OVCAR-8, > 100 µM (inactive). Also, the GI50 in the assay on KM12 is > 100 µM (inactive); in the assay on A549 it was > 100 µM (inactive); in the assay with BT-549 it was > 100 µM (inactive); with UO-31, 72.8 µM (inactive); in the assay on SNB-19 it was > 100 µM (inactive); in the assay on IGROV-1, 47.3 µM (inactive). Further, the GI50 is 63.4 µM (inactive) with SK-MEL-5 and > 100 µM (inactive) in the assay on NCI-H226.
On to `Cn1/c(=N\c2ccccc2[N+](=O)[O-])sc2ccccc21`, for which the GI50 in the assay with EKVX was 8.61 µM (inactive); in the assay on TK-10, 8.93 µM (inactive); with HL-60, > 100 µM (inactive); in the assay on MDA-MB-231, 6.1 µM (inactive); with CAKI-1 it was 43.9 µM (inactive); in the assay with OVCAR-8, 49.9 µM (inactive). Besides, the GI50 in the assay with KM12 is 1.6 µM (inactive); in the assay on T47D, 3.95 µM (inactive); in the assay with SN12C it was 84.1 µM (inactive); with SW-620, > 100 µM (inactive); in the assay on A549, > 100 µM (inactive); with UO-31, > 100 µM (inactive). The GI50 was 36.1 µM (inactive) with SNB-19; 5.4 µM (inactive) with IGROV-1; 19.2 µM (inactive) with SK-MEL-5; 34.9 µM (inactive) with NCI-H226; > 100 µM (inactive) in the assay with SR.
For the compound `C[C@]12CC[C@@H]3c4ccccc4CC[C@H]3[C@@H]1CC[C@@H]2O`, the GI50 is 80.5 µM (inactive) in the assay with EKVX; > 100 µM (inactive) in the assay on TK-10; > 10 µM (inactive) in the assay on HL-60; > 100 µM (inactive) with OVCAR-8; 68.7 µM (inactive) in the assay with KM12; 83 µM (inactive) in the assay on SN12C. In addition, the GI50 in the assay with SW-620 is > 100 µM (inactive); in the assay on A549, 99.3 µM (inactive); in the assay with UO-31, 39.7 µM (inactive); with SNB-19 it was > 100 µM (inactive); in the assay with IGROV-1 it was > 100 µM (inactive); in the assay with SR, 56.1 µM (inactive).
Consider `COc1ccc(NC(=O)/C(O)=C/C(=O)c2ccccc2)cc1`, for which the GI50 in the assay with EKVX, in the assay on TK-10, with HL-60, in the assay with MDA-MB-231, with CAKI-1 and in the assay with MCF7 was > 10 µM (inactive) throughout. Besides, the GI50 in the assay with OVCAR-8, in the assay on KM12, in the assay on T47D, in the assay on SN12C, in the assay on SW-620 and with A549 was > 10 µM (inactive) each time. In addition, the GI50 was 7.38 µM (inactive) with IGROV-1, > 10 µM (inactive) with SK-MEL-5 and 1.74 µM (inactive) with SR.
Turning to `CN1CCN(Cn2nc(COc3ccccc3Cl)n(/N=C/c3ccc(-c4ccc(Cl)cc4Cl)o3)c2=S)CC1`, the GI50 was 39.4 µM (inactive) in the assay with EKVX; 23.9 µM (inactive) in the assay on TK-10; 24.8 µM (inactive) with HL-60; 26.4 µM (inactive) with MDA-MB-231; 22.7 µM (inactive) in the assay on CAKI-1; 19.6 µM (inactive) with MCF7. Further, the GI50 in the assay on OVCAR-8 is 27 µM (inactive); in the assay on KM12, 19.7 µM (inactive); in the assay on T47D, 19.5 µM (inactive); in the assay with SW-620 it was 16.1 µM (inactive); in the assay on UO-31, 33.2 µM (inactive); in the assay with IGROV-1, 28 µM (inactive). For the same compound, the GI50 is 24.8 µM (inactive) in the assay on SK-MEL-5, 51.5 µM (inactive) in the assay on NCI-H226 and 24.3 µM (inactive) with SR.
On to `CCOC(=O)/C(C(=S)NCc1ccccc1)=C(/N)N1CCCC1`, for which the GI50 with EKVX, with TK-10, in the assay on HL-60, with MDA-MB-231, with CAKI-1 and in the assay on MCF7 was > 100 µM (inactive) each time. The GI50 in the assay with OVCAR-8, with KM12, in the assay with T47D, with SN12C, in the assay with SW-620 and in the assay on A549 was > 100 µM (inactive) throughout. In addition, the GI50 with UO-31 was 56.9 µM (inactive); in the assay on SNB-19 it was > 100 µM (inactive); in the assay with IGROV-1 it was > 100 µM (inactive); with SK-MEL-5, > 100 µM (inactive); in the assay with NCI-H226, > 100 µM (inactive); in the assay with SR, > 100 µM (inactive).

For the origin of these results see ChEMBL document CHEMBL1201862, “PubChem BioAssay data set” (2004).
